Source: patent US20020041889A1, “ENHANCING AGENT FOR DEGRADATION OF DESMOSOMES OR STRATUM CORNEUM DESQUAMATION” (priority 1997, published 2002)

Test system: desmoglein in a stratum corneum sheet (decomposition by trypsin-like and chymotrypsin-like enzymes)
Experiment: Percentage of residual desmoglein in stratum corneum sheets (SDS-PAGE / immunoblot with anti-desmoglein antibody)
Assay type: biochemical, human
Conditions: stratum corneum sheet (2 mg) from healthy subjects coated with 5 μl of a 5% aqueous solution of test compound; moisture content not greater than 30%; 37° C. for one week; average of three measurements; control = 100.00
Method: Method of Evaluation (the percentage of residual desmoglein in stratum corneum sheets) This method of evaluation serves to evaluate the degree of decomposition of desmoglein in a stratum corneum sheet by trypsin-like and chymotrypsin-like enzymes, i.e., the degree of stratum corneum desquamation. […] Stratum corneum sheets were peeled from healthy subjects and soaked in an antiseptic and fungicidal solution (containing 60 μl/ml of kanamycin and 0.5% NaN3) for 30 seconds. Both sides of a stratum corneum sheet weighing 2 mg were coated with 5 μl of a 5% aqueous solution containing each of the test compounds shown in Table I below. A stratum corneum sheet coated with an aqueous solution containing no test compound was regarded as a control. These stratum corneum sheets were subjected to the following procedure. The stratum corneum sheets prepared in the above-described manner were placed under such conditions that the stratum corneum would have a moisture content of not greater than 30% at which the degradation of desmosomes was insufficient, and allowed to stand at 37° C. for one week. Thereafter, using 0.5 ml of a 0.1 M Tris buffer (pH 9) containing 9 M urea, 2% SDS and 1% mercaptoethanol, each of the stratum corneum sheets was extracted at 37° C. for 15 hours. Then, 0.7 ml of a sample buffer for SDS-PAGE (a two-fold concentrated Laemmli solution) was added to the resulting extract and heated for 15 minutes. 10 μl of this solution was taken and subjected to electrophoresis in a gel having a concentration of 7.5%. After electrophoresis, the proteins were transferred to a PVDF membrane and immunologically stained with an anti-desmoglein antibody and alkaline phosphatase-labelled secondary (anti-mouse lg) antibody. Then, the labelled protein was visualized with NBT/BCIP substrate. Thus, the amount of the desired protein was determined. Then, the above evaluation process was repeated except that the above-mentioned 5% aqueous solution of each of the test compounds was replaced with an aqueous solution which had been adjusted to contain 0.1% of L-alanine and 2.9% of N,N,N-trimethylglycine.

Row | Percentage of residual desmoglein | Structure (SMILES)
1 | 69.44% | NC(CO)C(=O)O (racemic) [DL-Serine]
2 | 84.13% | NCC(=O)O [Glycine]
3 | 58.41% | N[C@@H](CO)C(=O)O [L-Serine]

The remaining lines, values behind:

Row | Structure (SMILES) | Percentage of residual desmoglein
4 | CC(N)C(=O)O (racemic) [DL-Alanine] | 54.55%
5 | C[C@@H](O)[C@H](N)C(=O)O (racemic) [DL-Threonine] | 97.50%
6 | O=C(O)[C@@H]1CC(O)CN1 (stereo partly drawn) [4-Hydroxy-L-proline] | 83.04%
7 | C[C@@H](O)[C@H](N)C(=O)O [L-Threonine] | 90.91%
8 | C[N+](C)(C)CC(=O)[O-] [N,N,N-Trimethylglycine] | 86.08%
9 | CCCCCCCCCCCC(=O)NCC(=O)[O-].[K+] [N-Dodecanoylglycine potassium salt] | 78.58%
